Assay results from patent US20180002692A1, “Sequence Specific and Organism Specific Antimicrobials and Related Materials and Methods” (priority 2015, published 2018).
Entries after “also recorded” stand apart in the source; their conditions may differ. Where two headings read alike, the source gives them in different places.

What was measured:
bla mRNA = bla mRNA expression by qPCR; assay type: cell-based, E. coli; settings: 5 μM α-TSS, 25 μM α-RBS, 25 μM α-YUNR; absence of ampicillin
Protocol: Three biological replicates were used for bla expression analysis. Cultures were pretreated overnight in respective PNA and liquid media in the absence of ampicillin and collected for RNA at 16 hr.
50 μL of the respective culture was added to 100 μL of Bacteria RNAprotect (Qiagen) and incubated at room temperature for 5 min. The cells were then pelleted via centrifugation for 3 min at 10,000 rpm, the supernatant removed, and samples were flash frozen in an ethanol dry ice bath and stored at −80° C. Precautions were taken to protect RNA from RNases using RNaseZap (Life Technologies). RNA was extracted from frozen cell pellets using GeneJET RNA purification kit (Thermo Scientific) and 350-600 ng was treated with Turbo DNA-free (Ambion). 50 ng cDNA was synthesized using Maxima Universal First Stand cDNA synthesis kit (Thermo Scientific). 1.5 ng of cDNA was used for qPCR with Maxima SYBR Green qPCR master mix with ROX normalization (Thermo Scientific) using Illumina Eco qPCR system. Transcript levels were analyzed using the ΔCq method with respect to moderately expressed housekeeping gene cysG (43). Transcript levels were further analyzed for the mutant populations using the ΔΔCq method with respect to the no treatment populations.

[1] = system: ampicillin-resistant E. coli; experiment: Colony forming unit analysis with α-TSS and ampicillin; settings: 1 μM α-TSS (below MIC), 300 μg/mL ampicillin
Protocol: Cultures were sampled at respective time points and serial dilutions were performed ranging from 10^2-10^10. For ampicillin sensitivity experiment, dilutions were plated on solid media and 300 μg/mL ampicillin sodium salt and grown at 37° C. for 24 hr followed by cell counting. For the other experiments, cultures were serially diluted into PBS and plated onto 2% agar and 1.5% agar. Plates were incubated for 16-24 h at 37° C. and counted for visible colonies.
Overnight cultures of ampicillin-resistant E. coli were pre-treated with different concentrations of α-TSS, followed by treatment with ampicillin.

[2] = system: ampicillin-resistant E. coli; assay type: cell-based
Protocol: pAKgfp1 plasmid was obtained from Addgene for TEM-1 β-lactamase resistance gene, bla (43). The plasmid was cloned into chemically competent Zymo DH5a E. coli (Expressys). Untransformed Zymo DH5a was used as a control strain for β-lactamase activity assays. Liquid cultures were grown in 2% LB, incubated at 37° C. and shaken at 225 rpm. Solid cultures were grown on 2% LB broth, 1.5% agar at 37° C. Ampicillin sodium salt (Sigma Aldrich) was used for selection at a concentration of 300 μg/mL for MIC and CFU analysis. Optical density measurements were taken using a Tecan GENios at 562 nm with a bandwidth of 35 nm. All bacterial freezer stocks were stored in 40% glycerol at −80° C.

[3] = system: ampicillin-resistant E. coli; assay type: cell-based; remark: listed apart in the source
Protocol: Three biological replicates were selected from colonies and pretreated for 16 hr with respective α-TSS concentration in liquid media. After pretreatment, the cultures were diluted 1:100,000 into liquid media with respective concentration of ampicillin and α-TSS and allowed to grow with shaking at 37° C. for 24 hr. The final OD at 562 nm at 24 hr was used for data analysis.
Data fitting analysis was performed in Origin Pro 6.1. Data was fit to a sigmoidal/decay Boltzman function.
The degree of re-sensitization exerted by α-TSS in presence of varying concentrations of ampicillin above and below the MIC determined for α-TSS was then evaluated.

[4] = system: ampicillin-resistant E. coli; experiment: Emergence of tolerance to α-TSS/ampicillin combination; assay type: cell-based; settings: 35 cultures
Protocol: Ampicillin-resistant cultures were pretreated overnight with 2.5 μM α-TSS and then subjected to selection pressure of 2.5 μM α-TSS and 300 μg/mL of ampicillin for 24 hours. […] Mutant populations 1 and 2 were diluted and re-grown under selection pressure for another 24 hours.
Changes in expression of a set of key stress response genes was examined to identify the resistance mechanism involved in obtaining resistance to α-TSS. Thirteen representative stress response genes were measured by qPCR (FIG. 5B).

MG1655 E. coli [5] = experiment: Growth (optical density, lag time) of MG1655; assay type: cell-based; settings: 10 μM antisense inhibitor
Protocol: MG1655 E. coli cultures were started from individual colonies from 2% LB and 1.5% agar into M9 media. They were diluted 1:10,000 from overnight culture into fresh M9 with respective treatment and grown at 37° C. with 225 rpm shaking. Clinical strains were started from individual colonies grown on cation adjusted Mueller Hinton Broth with 1.5% agar into liquid CAMHB. These were diluted 1:10,000 into CAMHB medium with respective treatment and grown at 37° C. with 225 rpm shaking. Optical density measurements were taking using a Tecan GENios at 562 nm with a bandwidth of 35 nm. Lag time was calculated using Growth Rates Made Easy (Hall et al. Mol. Biol. Evol. 31(1):232-238). […]

CRE E. coli = experiment: Growth of clinical strain CRE E. coli; assay type: cell-based, Escherichia coli; settings: 10 μM
Protocol: (§1) MG1655 E. coli cultures were started from individual colonies from 2% LB and 1.5% agar into M9 media. They were diluted 1:10,000 from overnight culture into fresh M9 with respective treatment and grown at 37° C. with 225 rpm shaking. Clinical strains were started from individual colonies grown on cation adjusted Mueller Hinton Broth with 1.5% agar into liquid CAMHB. These were diluted 1:10,000 into CAMHB medium with respective treatment and grown at 37° C. with 225 rpm shaking. Optical density measurements were taking using a Tecan GENios at 562 nm with a bandwidth of 35 nm. Lag time was calculated using Growth Rates Made Easy (Hall et al. Mol. Biol. Evol. 31(1):232-238).
(§2) MDR E. coli was inhibited by four of the six oligomers tested (α-folC, α-ffh, α-lexA, and α-rpsD), extended-spectrum beta-lactamase (ESBL) K. pneumoniae was inhibited by two of the antisense oligomers (α-fnrS and α-rpsD), and New Delhi metallo-β-lactamase (NDM-1) K. pneumoniae was inhibited by one of the oligomers tested (α-rpsD) (FIGS. 15-16).

MDR E. coli = experiment: Growth of clinical strain MDR E. coli; assay type: cell-based; settings: 10 μM
Protocol: as §1, §2

MG1655 E. coli [6] = experiment: Colony forming unit analysis of MG1655; assay type: cell-based; settings: 10 μM, 2 hours; listed as A-rpsD
Excerpt: The effect of α-lexA, α-fnrS, and α-rpsD on cell viability using a colony forming unit analysis was then determine.

[7] = system: MDR Salmonella typhimurium; experiment: Growth of clinical strain MDR S. typhimurium; assay type: cell-based; settings: 10 μM
Protocol: as §1, §2

ESBL K. pneumoniae = experiment: Growth of clinical strain ESBL K. pneumoniae; assay type: cell-based, Klebsiella pneumoniae; settings: 10 μM
Protocol: as §1, §2

NDM-1 K. pneumoniae = experiment: Growth of clinical strain NDM-1 K. pneumoniae; assay type: cell-based, Klebsiella pneumoniae; settings: 10 μM
Protocol: as §1, §2

[8] = 0.5 μM α-TSS (below MIC), 24 hr

Substance: KFFKFFKFFK-O-tactcatactct (antisense TACTCATACTCT; PNA, O-linker to (KFF)3K peptide, chemistry not fully specified) [α-TSS, 12-mer antisense PNA to translation start site of bla mRNA, O-linker to (KFF)3K cell penetrating peptide]
- bla mRNA expression (bla mRNA): did not affect bla transcript levels; also recorded: did not significantly reduce bla expression
- colony forming units over time [1]: increased with time
- re-sensitization of drug resistant E. coli to ampicillin [2]: re-sensitized drug resistant E. coli to ampicillin; also recorded: re-sensitization of drug resistant E. coli to ampicillin; also recorded: re-sensitize
- growth in absence of ampicillin (toxicity of antisense agent) ([2]; absence of ampicillin): non-toxic effect; also recorded: No inhibition
- growth of drug-resistant E. coli in presence of ampicillin ([2]; antisense oligomer plus 300 μg/mL ampicillin): hindered cell growth; also recorded: impact growth; also recorded: significant antibiotic effect
- minimum inhibitory concentration (MIC) ([2]; in presence of 300 μg/mL ampicillin, after overnight pretreatment with antisense agent): 2.5 µM
- slope of the transition from resistant to sensitive (Boltzman fit) ([3]; 0.5 μM α-TSS (below MIC)): −0.0038 ODmLμg^−1
- ampicillin concentration up to which growth is unhindered [3, 8]: 250 µg/mL
- ampicillin concentration with no growth [3, 8]: 550 µg/mL
- decrease in ampicillin MIC compared to the no treatment cultures ([3]; 5 μM α-TSS (above MIC)): greater than 20 fold
- increase in negative slope compared to below MIC and no treatment ([3]; 5 μM α-TSS (above MIC)): Greater than two fold
- slope of the transition from resistant to sensitive (Boltzman fit) ([3]; 5 μM α-TSS (above MIC)): −0.010 OD/μg/mL
- lowest ampicillin concentration showing a decrease in growth ([3]; 5 μM α-TSS (above MIC), 24 hr): 25 µg/mL
- shift in ampicillin sensitivity ([3]; α-TSS at 0.5 μM (below MIC) and 5 μM (above MIC)): leftward shift in ampicillin sensitivity
- share of independent cultures showing emergence of tolerance ([4]; 2.5 μM α-TSS (MIC)/β-lactam): less than 5%
- independent cultures showing emergence of tolerance ([4]; 5 μM α-TSS/ampicillin): None

Substance: KFFKFFKFFK-O-ttgccattttct (antisense TTGCCATTTTCT; all peptide nucleic acid (PNA); (KFF)3K cell-penetrating peptide joined to the N-terminus through an O-linker) [α-rpsD, 12-mer antisense PNA centered on start codon of rpsD, O-linker to (KFF)3K]
- lag time (MG1655 E. coli [5]): significantly increased lag time
- growth of MG1655 E. coli cultures (MG1655 E. coli [5]; 24 h): completely inhibited; also recorded: completely prevented cell growth; also recorded: Complete inhibition
- growth inhibition of CRE E. coli (CRE E. coli): completely prevented growth; also recorded: inhibited
- growth inhibition of MDR E. coli (MDR E. coli): inhibited
- colony forming units per milliliter after two hours of treatment (MG1655 E. coli [6]): zero
- growth inhibition of MDR S. typhimurium [7]: inhibited
- growth inhibition of ESBL K. pneumoniae (ESBL K. pneumoniae): inhibited
- growth inhibition of NDM-1 K. pneumoniae (NDM-1 K. pneumoniae): inhibited
